Reference: patent publication US4471116A, “Substituted (10H-phenothiazin-10-L)-propyl-1-piperazines” (Hoffmann-La Roche Inc., priority 1982, dated 1984)
Counter-ions that a name gives are not always drawn. Like-named read-outs stand apart in the source and are kept apart here.

Columns and labels:
[1] = system: avoidance behavior; experiment: Discrete Avoidance - Rats (avoidance block / escape block); type: in vivo, rat; conditions: for inhibition in vivo at 40 mg/kg / inhibition in vivo at 25 mg/kg: Rattus norvegicus
Description: For example, by one procedure, trained rats are placed in experimental chambers equipped with a response lever, a steel grid floor for delivery of electric shock and a loudspeaker for presentation of auditory stimuli. […] The rats can terminate a trial at any point by depression of the response lever. A response during the initial fifteen-second warning tone ends the trial before shock delivery and is considered an avoidance response, while a response occurring during shock delivery is an escape response. Trials are presented every two minutes during a one-hour test session (30 trials per session). […] Compounds are administered to a minimum of three to four rats at each dose level over a range of doses. Rats receive vehicle alone, during control sessions prior to drug administration. Each rat is tested daily or weekly, after a single drug administration, until avoidance behavior returns to pre-drug baseline levels. The session is divided into three consecutive twenty minute (ten trial) segments. Response counts are summed over all subjects at a given dose within each segment. […] This number is expressed as a percentage of the total trials within the segment. […] The lowest dose which produced a 20% block of escape responding (EBD 20) is read from a graphic dose-effect plot. In obtaining these values, percent effect is plotted against the log dose.

[2] = system: Continuous Avoidance; experiment: Continuous Avoidance (Squirrel Monkeys); type: in vivo, squirrel monkey; conditions: Primates; Squirrel Monkey, PO, 1 Hour Post-Drug; read-out: Continuous Avoidance MED Shocks
[3] = system: Apomorphine Induced Emesis; experiment: Apomorphine Induced Emesis antagonism (Dogs); type: in vivo, dog; conditions: Canis lupus familiaris; Dog, SC, 1 Hour Post-Drug; read-out: Anti-Apomorphine Emesis ED50
[4] = system: Amphetamine Induced Rotation; experiment: Amphetamine Induced Rotation antagonism (S. Nigra Lesioned Rats) / Rotation Antagonism; type: in vivo, rat; conditions: Rat, PO, 1 Hour Post-Drug
[5] = system: Confinement Motor Activity; experiment: Confinement Motor Activity; type: in vivo; conditions: Rat, PO, 1 Hour Post-Drug; read-out: Confinement Motor Activity DD50
[6] = system: Dopamine Turnover-Brain Caudate; experiment: Dopamine Turnover-Brain, Caudate; type: in vivo; conditions: Rat, 1 mg/kg IP, 1 Hour Post-Drug
[7] = system: Dopamine Turnover-Brain Limbic and Remainder; experiment: Dopamine Turnover-Brain, Limbic and Remainder; type: in vivo; conditions: Rat, 1 mg/kg IP, 1 Hour Post-Drug
[8] = 1 h, 40 mg/kg po, 60 min. post-drug, read-out: Percentage Block of Avoidance, 60 min. post-drug
[9] = 40 mg/kg po, 24 hrs. post-drug, read-out: Percentage Block of Avoidance, 24 hrs. post-drug
[10] = 40 mg/kg po, at the indicated duration, read-out: Avoidance block at Duration of Sig. Activity (AB)
[11] = 40 mg/kg po, at time of peak effect, read-out: Avoidance block at Time of Peak Effect (AB)

| SMILES | Duration of Sig. Activity ([1]; 40 mg/kg po) | Time of Peak Effect ([1]; 40 mg/kg po) [days] | inhibition in vivo at 40 mg/kg [1, 8] [%] | inhibition in vivo at 40 mg/kg [1, 9] [%] | inhibition in vivo at 40 mg/kg [1, 10] [%] | inhibition in vivo at 40 mg/kg [1, 11] [%] | further results |
| --- | --- | --- | --- | --- | --- | --- | --- |
| CC(C)NCCCCCOc1ccc(OCCN2CCN(CCCN3c4ccccc4Sc4ccc(Cl)cc43)CC2)cc1 [1-[3-(2-chloro-10H--phenothiazin-10-yl)propyl]-4-[2-[4-[5-(1-methylethyl)aminopentoxy]phenoxy]ethyl]piperazine trimaleate] | 2 weeks | 1 | 10 | 97 | 23 | 97 | – |
| CC(C)NCCCCCCOc1ccc(OCCN2CCN(CCCN3c4ccccc4Sc4ccc(Cl)cc43)CC2)cc1 [1-[3-(2-chloro-10H-phenothiazin-10-yl)]-4-[2-[4-[6-(1-methylethyl)aminohexyloxy]phenoxy]ethyl]piperazine trihydrochloride] | 1 weeks | 1 | 23 | 40 | 30 | 40 | – |
| CC(C)NCCCOc1ccc(OCCN2CCN(CCCN3c4ccccc4Sc4ccc(Cl)cc43)CC2)cc1 [1-[3-(2-chloro-10H-phenothiazin-10-yl)propyl]-4-2-[4-[3-(1-methylethyl)aminopropoxy]phenoxy]ethyl]piperazine trihydrochloride] | 5 weeks | 1 | 10 | 97 | 50 | 97 | – |
| CC(C)NCCOc1ccc(OCCN2CCN(CCCN3c4ccccc4Sc4ccc(Cl)cc43)CC2)cc1.Cl.Cl.Cl [1-[3-(2-chloro-10H-phenothiazin-10-yl)propyl]-4-[2-[4-[2-(1-methylethyl)aminoethoxy]phenoxy]ethyl]piperazine trihydrochloride] | 8 weeks | 1 | 10 | 100 | 37 | 100 | – |
| CC(C)NCCc1ccc(OCCN2CCN(CCCN3c4ccccc4Sc4ccc(Cl)cc43)CC2)cc1.O=C(O)/C=C\C(=O)O.O=C(O)/C=C\C(=O)O.O=C(O)/C=C\C(=O)O [1-[3-(2-chloro-10H-phenothiazin-10-yl)propyl]-4-[2-[4-[2-(1-methylethyl)aminoethyl]phenoxy]ethyl]piperazine trimaleate] | 5 weeks | 1 | 10 | 100 | 80 | 100 | – |
| CC(C)NCCCc1ccc(OCCN2CCN(CCCN3c4ccccc4Sc4ccc(Cl)cc43)CC2)cc1.Cl.Cl.Cl [1-[3-(2-chloro-10H-phenothiazin-10-yl)propyl]-4-[2-[4-[3-(1-methylethyl)aminopropyl]phenoxy]ethyl]piperazine trihydrochloride] | 5 weeks | 1 | 45 | 100 | 55 | 100 | – |
| CC(C)NCCCCOc1ccc(OCCN2CCN(CCCN3c4ccccc4Sc4ccc(Cl)cc43)CC2)cc1.Cl.Cl.Cl [1-[3-(2-chloro-10H-phenothiazin-10-yl)propyl]-4-[2-[4-[4-(1-methylethyl)aminobutoxy]phenoxy]ethyl]piperazine trihydrochloride] | 5 weeks | 3 to 10 | 20 | 33 | 30 | 97 to 100 | – |
| CC(C)NCCCCc1ccc(OCCN2CCN(CCCN3c4ccccc4Sc4ccc(Cl)cc43)CC2)cc1 [1-[3-(2-chloro-10H-phenothiazin-10-yl)propyl]-4-[2-[4-[4-(1-methylethyl)aminobutyl]phenoxy]ethyl]piperazine] | 51/2 | 1 | 17 | 100 | 55 | 100 | – |
| CSc1ccc2c(c1)N(CCCN1CCN(CCOc3ccc(OCCCCCNC(C)C)cc3)CC1)c1ccccc1S2.O=C(O)/C=C\C(=O)O.O=C(O)/C=C\C(=O)O.O=C(O)/C=C\C(=O)O [1-[3-(2-methylthio-10H-phenothiazin-10-yl)propyl]-4-[2-[4-[5-(1-methylethyl)aminopentoxy]phenoxy]ethyl]piperazine trimaleate] | 3 days | 0.0417 | 60 | 45 | 35 | 60 | – |
| CN(C)CCCOc1ccc(OCCN2CCN(CCCN3c4ccccc4Sc4ccc(Cl)cc43)CC2)cc1.Cl.Cl.Cl [3-[[4-[2-[4-[3-(2-chloro-10H-phenothiazin-10-yl)propyl]-1-piperazinyl]ethoxy]phenyl]oxy]-N,N-dimethylpropanamine trihydrochloride] | > 6 weeks | 1 | 50 | 100 | 25 | 100 | – |
| CNCCCOc1ccc(OCCN2CCN(CCCN3c4ccccc4Sc4ccc(Cl)cc43)CC2)cc1.Cl.Cl.Cl [3-[[4-[2-[4-[3-(2-chloro-10H-phenothiazin-10-yl)propyl]-1-piperazinyl]ethoxy]phenyl]oxy]-N-methylpropanamine trihydrochloride] | 5 weeks | 1 | 65 | 100 | 25 | 100 | – |
| Cl.Cl.Cl.NCCCOc1ccc(OCCN2CCN(CCCN3c4ccccc4Sc4ccc(Cl)cc43)CC2)cc1 [3-[[4-[2-[4-[3-(2-chloro-10H-phenothiazin-10-yl)propyl]-1-piperazinyl]ethoxy]phenyl]oxy]propanamine trihydrochloride] | 51/2 | 3 | 40 | 73 | 27 | 90 | – |
| CC(C)NC[C@@H](O)COc1ccc(OCCN2CCN(CCCN3c4ccccc4Sc4ccc(Cl)cc43)CC2)cc1.Cl.Cl.Cl [(R)-1-(1-methylethylamino)-3-[4-[2-[4-[3-(2-chloro-10H-phenothiazin-10-yl)propyl]piperazin-1-yl]ethoxy]phenoxy]-2-propanol, trihydrochloride] | 3 weeks | 10 | 20 | 27 | 27 | 37 | – |
| CC(C)NC[C@H](O)COc1ccc(OCCN2CCN(CCCN3c4ccccc4Sc4ccc(C(F)(F)F)cc43)CC2)cc1 [(S)-1-(1-methylethylamino)-3-[4-[2-[4-[3-(2-trifluoromethyl)-10H-phenothiazin-10-yl)propyl]piperazin-1-yl]ethoxy]phenoxy]-2-propanol trihydrochloride] | – | – | – | – | – | – | Duration of Sig. Activity ([1]; 25 mg/kg po): 61/2; Time of Peak Effect ([1]; 25 mg/kg po): 3 to 10 days; inhibition in vivo at 25 mg/kg ([1]; 1 h, 25 mg/kg po, 60 min. post-drug, read-out: Percentage Block of Avoidance, 60 min. post-drug): 33%; inhibition in vivo at 25 mg/kg ([1]; 25 mg/kg po, 24 hrs. post-drug, read-out: Percentage Block of Avoidance, 24 hrs. post-drug): 57%; inhibition in vivo at 25 mg/kg ([1]; 25 mg/kg po, at the indicated duration, read-out: Avoidance block at Duration of Sig. Activity (AB)): 37%; inhibition in vivo at 25 mg/kg ([1]; 25 mg/kg po, at time of peak effect, read-out: Avoidance block at Time of Peak Effect (AB)): 77 to 87% |
| O=C(CCCN1CCC(O)(c2ccc(Cl)cc2)CC1)c1ccc(F)cc1 [Haloperidol, haloperidol, reference compound] | – | – | – | – | – | – | ED50 ([1]; Rat, PO, 1 Hour Post-Drug, read-out: Discrete Avoidance ABD50): 0.35 mg/kg; minimal effective dose [2]: 0.28 mg/kg; ED50 [3]: 0.02 mg/kg; ED50 [4]: 0.35 mg/kg; ED50 [5]: 0.4 mg/kg; Dopamine Turnover-Brain, Caudate [6]: Signif. .uparw.; Dopamine Turnover-Brain, Limbic and Remainder [7]: Signif. .uparw. |
